Assay results reported in US12070463B2, “Compositions and methods for the treatment of seizure caused by brain tumor” (Board Of Supervisors Of Louisiana State University And …, priority 2015, dated 2024).
Entries after “also recorded” stand apart in the source; their conditions may differ.

Tests used:
[1] = system: MIP-2; test: MIP-2 in mice with GBM; type: in vivo; settings: compared with vehicle
[2] = system: Lyn kinase; test: Phospho-Lyn in hippocampal synapsis after SE, immunohistology; type: in vivo, mice; settings: hippocampus
[3] = system: MIP-2; test: Hippocampal MIP-2 after neuroinflammation (LPS / post status epilepticus), bead-based immunodetection; type: in vivo, mice; settings: 60 mg/kg/daily for 5 days i.p.
Description: MIP-2 was measured using bead-based immunodetection. Values are means±SD: *P<0.05 (two-way repeated-measures ANOVA).
MIP-2 was measured using bead-based immunodetection respectively. Diamonds: interval of confidence; diamond internal horizontal line; group mean; bar lines; standard deviation. Data represent average and bars±S.E.M; n=3 of each group. ANOVA one way, *=p<0.05.
Pro-inflammatory molecular analysis: LC-MS/MS-based mediator lipidomic analysis will be evaluated as described previously (Musto et al., 2011, Musto and Samii, 2011), chemokine analysis was performed using commercial enzyme-linked immune-absorbent assay (Rodent MAPs Myira RBM, USA), and matrix metalloproteinase (MMP) activity were investigated by gelatin zymography assay (Ramaswamy et al., 2014).

[4] = system: microglia; settings: in vivo; cited from earlier work
[5] = Pentylenetetrazol (PTZ) test, locomotor seizures by modified Racine's score; type: in vivo, mice; settings: single dose 60 mg/kg i.p. 2 h before PTZ 40 mg/kg i.p.; vs vehicle
Description: A single dose (i.p.) of a LAU compound 60 mg/kg; ip.) or vehicle (0.1 mL of sterile 0.9% sodium chloride) was administered 2 h before a single dose of pentylenetetrazol (PTZ) (40 mg/kg; i.p.). Data represent average and bars±S.E.M. t-test between vehicle and for each LAU compound: LAU0901 p<0.031; others: p<0.0001 at 60 mins. Maximum seizure levels and the percentage reduction from vehicle after PTZ injection are shown. Locomotor seizures were video recorded and quantified according to a modified Racine's score (Stage: 0 normal locomotor activity. Stage 1, behavioral arrest, Stage 2: head nodding; stage 3, facial movements and contralateral forelimb dorms).
Pentylenetetrazol test: The systemic administration of pentylenetetrazol (PTZ) in rodents, an accepted model to test the potential anti-convulsive effect (Loscher, 2011) was used to evaluate seizure susceptibility in mice with GBM cell implantation. It has been seen that systemic administration of PTZ at 35 mg/kg is useful as a sub-convulsive dose to evaluate seizures after brain damage. Animals were placed in individual Plexiglas cages (28×28×37.5 cm) and then a single dose of PTZ (Sigma, St. Louis, MO) at 35 mg/kg were administered intraperitoneally (i.p.) to each animal. Locomotor seizures were quantified according to a modified Racine's Score classified as previously described (Musto et al., 2009, 2011).

[6] = system: dysmorphic filopodia-like spines; test: Dysmorphic filopodia-like dendritic spines in epileptogenesis, Golgi staining; type: in vivo, mice; settings: 7 days after SE
Description: Cyto-architecture hippocampal neurons, dendrites and dendritic spines was evaluated using rapid Golgi staining and the DIOLISTIC labeling approach, as shown in FIG. 12A. Then dendrites and dendritic spines from pyramidal cells were reconstructed, analyzed, and visualized in a 30 shape of neurons from the ipsi and contralateral hippocampal region using light and confocal microscopy, digitally-traced, mediated computational analysis.

[7] = Seizure susceptibility and survival after status epilepticus (SE); type: in vivo, BALB/c (nu/nu) mice; settings: 60 mg/kg i.p. daily for 5 days, 24 h after SE
Description: BABL/c (nu/nu) mice received compound LAU-0901 (60 mg/kg; i.p.) or saline daily for 5 days 24 h after SE.
GBM cells were implanted into PAF-r deficient or wild type mice. Lyn kinase inhibitor (Dasatinib; 0.01 mL/g) (Luo et al., 2000) or vehicle (propylene glycol/water) was administered intraperitoneally at 14 d after GBM implantation and continues for 14 d. Alternatively, BALB/c, (nu/nu) mice received LAU-0901 (60 mg/kg; i.p.) or saline daily for 5 days (n=4-5 per group) 24 h after SE. Weight, locomotion, survival rate, behavior, in vivo tumor growth, and GBM cells were analyzed.

[8] = system: U87MG cells; test: Hippocampal U87MG GBM xenograft, tumor growth by in vivo bioluminescent imaging; parameters: species or system BALB/c (nu/nu) mice
Description: FIGS. 3A-3C illustrate that a PAF-r antagonist reduces GBM tumor size. U87MG cells were implanted in the right dorsal CA3 hippocampal region of BALB/c (nu/nu) mice. Intracranial tumor growth was quantified using Jo vivo bioluminescent imaging on days 10 and 25. Saline (vehicle) or LAU-0901 (60 mg/kg/day; i.p., n=6 in each group) was administered daily from day 10, during 5 days.
Experimental Design and Methods: PAF-r deficient and wild type mice and athymic nude mice, 6 to 8 weeks of age (Harlan Laboratories) mice were used. The xerograph GBM mouse model is representative of this tumor, which has a narrow survival window. These cells form a massive and homogenous mass from tumor-initiating cells, are localized, and invade neuronal tissue. This model is a predictor of therapeutic responses in human glioblastoma patients. U87MG cells (FIGS. 2A-3C) with a luciferase reporter gene were injected (5×10^5 cells in […] serum-free DMEM) into the right dorsal CA3 hippocampal region (coordinates: 2.5 mm lateral, 1.7 mm posterior to the bregma, and 1.5 depth) of mice (6-8 wks of age) (Marrero et al., 2014).
In vivo imaging analysis: Intracranial tumor growth was quantified by bioluminescent imaging using an in vivo imaging system and procedures as described by Marrero et al., 2014, incorporated herein by reference in its entirety.

| Compound | increases of MIP-2 [1] | puncta phospho-Lyn and co-localization with pre- and post-synaptic markers [2] | hippocampal levels of MIP-2 ([3]; LPS one week after status epilepticus, vs saline (FIG. 4)) | hippocampal levels of MIP-2 ([3]; LPS or one week after status epilepticus (PSE), vs vehicle (FIG. 20), 60 mg/kg) | microglia activation [4] | neuronal hyper-excitability (locomotor seizures after PTZ) [5] | average spine length for dysmorphic filopodia-like spines [6] | seizure severity [7] | tumor size ([8]; 60 mg/kg/day i.p. for 5 days from day 10, representative images, 10 week-survival period, vs saline) | tumor size diminished compared to saline-treated group ([8]; day 25, 60 mg/kg/day i.p. for 5 days from day 10) [%] | body weight ([8]; weeks 8 and 10, compared to saline group) |
| --- | --- | --- | --- | --- | --- | --- | --- | --- | --- | --- | --- |
| CC(C)Cc1ccc([C@@H](C)C(=O)NS(C)(=O)=O)cc1 [repertaxin] | higher in those mice treated with vehicle | – | – | – | – | – | – | – | – | – | – |
| 2,4,6-trimethyl-1,4-dihydro-pyridine-3,5-dicarboxylic acid 5-[2-(3,4-dichlorophenyl) sulfanethyl ester 3-[1,3-di-(4-morpholinyl)-2-propyl-1-ester [LAU-0901] | – | low puncta phospho-Lyn | reduced | limited; also recorded: reduces | reduces microglia activation | counteract neuronal hyper-excitability | increased in the vehicle-treated compared to the LAU-0901-treated group | reduced seizure severity | dramatically reduced | 80 | increased |
